Source: patent publication US7074789B2, “Kinase inhibitors” (Amgen Inc., priority 1999, dated 2006)

What was measured:
Format in all cases: biochemical
[1] = target: T1, AKT (Homo sapiens, UniProt Q9Y243); assay: Kinase inhibition assay (33P transfer), AKT; settings: Table 2, kinase inhibition class; read-out: AKT3-1
T1 construct: Kinases are expressed as either kinase domains or full length constructs; made in house
Outline: (§1)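 Kinase domain or full-length constructs, GST- or polyHis-tagged, expressed in E. coli or baculovirus-High Five cells, sometimes with regulatory polypeptides. Activity measured as 33PO4 transfer from ATP to plate-bound poly(Glu,Tyr) 4:1 or poly(Arg,Ser) 3:1; after incubation, plates washed with 0.5% phosphoric acid and counted by liquid scintillation.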

[2] = target: T2, Fyn (Homo sapiens, UniProt P06241); assay: Kinase inhibition assay (33P transfer), Fyn; settings: read-out: Fyn-1
T2 construct: Kinases are expressed as either kinase domains or full length constructs; made in house
Outline: (§2)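 Kinase domains or full-length enzymes, GST- or polyHis-tagged, were expressed in E. coli or baculovirus High Five cells and affinity-purified. Transfer of 33PO4 from ATP onto plate-bound poly(Glu,Tyr) 4:1 or poly(Arg,Ser) 3:1 was counted by liquid scintillation after a 0.5% phosphoric acid wash. IC50 = concentration halving incorporation.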

[3] = target: T3, Hck-1 (Homo sapiens, UniProt P08631); assay: Kinase inhibition assay (33P transfer), Hck; settings: Table 6, Hck-1 kinase inhibition class
T3 construct: Kinases are expressed as either kinase domains or full length constructs; made in house
T3 sequence (P08631 whole entry, the tested form may be a part): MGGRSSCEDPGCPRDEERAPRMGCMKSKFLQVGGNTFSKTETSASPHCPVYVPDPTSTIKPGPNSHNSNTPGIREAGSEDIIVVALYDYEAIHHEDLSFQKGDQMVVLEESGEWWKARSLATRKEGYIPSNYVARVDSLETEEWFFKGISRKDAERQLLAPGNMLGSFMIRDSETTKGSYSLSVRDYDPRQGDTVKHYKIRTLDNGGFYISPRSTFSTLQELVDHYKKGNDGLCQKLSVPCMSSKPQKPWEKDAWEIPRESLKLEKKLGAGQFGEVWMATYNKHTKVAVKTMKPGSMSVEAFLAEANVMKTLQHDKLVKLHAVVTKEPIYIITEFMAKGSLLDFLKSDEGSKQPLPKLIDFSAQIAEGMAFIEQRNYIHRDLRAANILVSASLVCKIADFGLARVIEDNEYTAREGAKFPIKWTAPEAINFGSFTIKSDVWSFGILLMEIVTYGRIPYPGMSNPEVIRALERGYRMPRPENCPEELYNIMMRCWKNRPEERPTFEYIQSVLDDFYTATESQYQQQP

[4] = target: T4, PDGFRB (Homo sapiens, UniProt P09619); assay: Kinase inhibition assay (33P transfer), PDGFRB; settings: read-out: PDGFRB-1
T4 construct: Kinases are expressed as either kinase domains or full length constructs; made in house

[5] = target: T5, EGFR (Homo sapiens, UniProt P00533); assay: Kinase inhibition assay (33P transfer), EGFR; settings: Table 2, kinase inhibition class; read-out: EGFR-1
T5 construct: Kinases are expressed as either kinase domains or full length constructs; made in house
Outline: as §2

[6] = target: T6, EPHB4 (Homo sapiens, UniProt P54760); assay: Kinase inhibition assay (33P transfer), EPHB4; settings: read-out: EPHB4-1
T6 construct: Kinases are expressed as either kinase domains or full length constructs; made in house
T6 sequence (P54760 16-987): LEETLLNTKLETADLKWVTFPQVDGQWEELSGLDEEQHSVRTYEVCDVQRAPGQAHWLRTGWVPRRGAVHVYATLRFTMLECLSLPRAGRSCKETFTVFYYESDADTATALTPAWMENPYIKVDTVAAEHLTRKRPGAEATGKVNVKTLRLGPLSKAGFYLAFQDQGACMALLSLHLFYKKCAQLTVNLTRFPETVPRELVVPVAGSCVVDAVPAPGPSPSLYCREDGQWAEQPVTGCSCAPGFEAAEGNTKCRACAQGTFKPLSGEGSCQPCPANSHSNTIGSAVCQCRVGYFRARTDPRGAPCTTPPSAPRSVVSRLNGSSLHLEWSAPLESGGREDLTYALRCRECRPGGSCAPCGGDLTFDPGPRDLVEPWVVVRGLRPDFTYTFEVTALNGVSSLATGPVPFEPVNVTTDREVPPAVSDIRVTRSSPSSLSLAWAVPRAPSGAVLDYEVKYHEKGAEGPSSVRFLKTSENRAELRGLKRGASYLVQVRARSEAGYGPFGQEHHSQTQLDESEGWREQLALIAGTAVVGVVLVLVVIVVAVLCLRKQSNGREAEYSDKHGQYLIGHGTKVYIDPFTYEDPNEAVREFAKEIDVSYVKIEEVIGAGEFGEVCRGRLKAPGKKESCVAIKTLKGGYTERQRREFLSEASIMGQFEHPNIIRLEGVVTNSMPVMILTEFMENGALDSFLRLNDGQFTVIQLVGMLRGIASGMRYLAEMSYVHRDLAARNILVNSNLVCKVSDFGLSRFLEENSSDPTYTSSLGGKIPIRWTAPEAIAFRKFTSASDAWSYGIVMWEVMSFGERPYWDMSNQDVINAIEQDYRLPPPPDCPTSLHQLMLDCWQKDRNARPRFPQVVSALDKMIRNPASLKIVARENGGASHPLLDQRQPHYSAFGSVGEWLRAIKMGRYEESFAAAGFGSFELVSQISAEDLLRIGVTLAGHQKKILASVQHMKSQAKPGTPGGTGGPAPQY

[7] = target: T7, Lck (Homo sapiens, UniProt P06239); assay: Kinase inhibition assay (33P transfer), Lck; settings: Table 3; read-out: Lck-1
T7 construct: Kinases are expressed as either kinase domains or full length constructs; made in house
T7 sequence (P06239 whole entry, species assumed, the tested form may be a part): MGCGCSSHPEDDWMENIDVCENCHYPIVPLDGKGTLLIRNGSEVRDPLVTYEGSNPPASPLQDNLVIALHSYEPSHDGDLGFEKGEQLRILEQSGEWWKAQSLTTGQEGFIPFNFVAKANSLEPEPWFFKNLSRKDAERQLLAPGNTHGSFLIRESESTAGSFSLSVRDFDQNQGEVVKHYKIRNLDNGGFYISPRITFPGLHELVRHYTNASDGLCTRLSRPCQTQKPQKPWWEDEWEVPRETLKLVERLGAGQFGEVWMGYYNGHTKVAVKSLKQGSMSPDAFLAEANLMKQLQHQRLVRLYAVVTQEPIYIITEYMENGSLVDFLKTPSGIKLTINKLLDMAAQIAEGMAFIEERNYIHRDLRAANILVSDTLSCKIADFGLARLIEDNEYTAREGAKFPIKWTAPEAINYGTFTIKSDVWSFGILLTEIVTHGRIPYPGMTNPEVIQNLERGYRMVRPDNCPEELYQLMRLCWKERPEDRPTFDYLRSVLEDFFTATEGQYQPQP
Outline: as §1

[8] = target: T8, IGFR-1 (Homo sapiens, UniProt P08069); assay: Kinase inhibition assay (33P transfer), IGFR-1; settings: Table 2, kinase inhibition class
T8 construct: Kinases are expressed as either kinase domains or full length constructs; made in house
T8 sequence (P08069 31-1367): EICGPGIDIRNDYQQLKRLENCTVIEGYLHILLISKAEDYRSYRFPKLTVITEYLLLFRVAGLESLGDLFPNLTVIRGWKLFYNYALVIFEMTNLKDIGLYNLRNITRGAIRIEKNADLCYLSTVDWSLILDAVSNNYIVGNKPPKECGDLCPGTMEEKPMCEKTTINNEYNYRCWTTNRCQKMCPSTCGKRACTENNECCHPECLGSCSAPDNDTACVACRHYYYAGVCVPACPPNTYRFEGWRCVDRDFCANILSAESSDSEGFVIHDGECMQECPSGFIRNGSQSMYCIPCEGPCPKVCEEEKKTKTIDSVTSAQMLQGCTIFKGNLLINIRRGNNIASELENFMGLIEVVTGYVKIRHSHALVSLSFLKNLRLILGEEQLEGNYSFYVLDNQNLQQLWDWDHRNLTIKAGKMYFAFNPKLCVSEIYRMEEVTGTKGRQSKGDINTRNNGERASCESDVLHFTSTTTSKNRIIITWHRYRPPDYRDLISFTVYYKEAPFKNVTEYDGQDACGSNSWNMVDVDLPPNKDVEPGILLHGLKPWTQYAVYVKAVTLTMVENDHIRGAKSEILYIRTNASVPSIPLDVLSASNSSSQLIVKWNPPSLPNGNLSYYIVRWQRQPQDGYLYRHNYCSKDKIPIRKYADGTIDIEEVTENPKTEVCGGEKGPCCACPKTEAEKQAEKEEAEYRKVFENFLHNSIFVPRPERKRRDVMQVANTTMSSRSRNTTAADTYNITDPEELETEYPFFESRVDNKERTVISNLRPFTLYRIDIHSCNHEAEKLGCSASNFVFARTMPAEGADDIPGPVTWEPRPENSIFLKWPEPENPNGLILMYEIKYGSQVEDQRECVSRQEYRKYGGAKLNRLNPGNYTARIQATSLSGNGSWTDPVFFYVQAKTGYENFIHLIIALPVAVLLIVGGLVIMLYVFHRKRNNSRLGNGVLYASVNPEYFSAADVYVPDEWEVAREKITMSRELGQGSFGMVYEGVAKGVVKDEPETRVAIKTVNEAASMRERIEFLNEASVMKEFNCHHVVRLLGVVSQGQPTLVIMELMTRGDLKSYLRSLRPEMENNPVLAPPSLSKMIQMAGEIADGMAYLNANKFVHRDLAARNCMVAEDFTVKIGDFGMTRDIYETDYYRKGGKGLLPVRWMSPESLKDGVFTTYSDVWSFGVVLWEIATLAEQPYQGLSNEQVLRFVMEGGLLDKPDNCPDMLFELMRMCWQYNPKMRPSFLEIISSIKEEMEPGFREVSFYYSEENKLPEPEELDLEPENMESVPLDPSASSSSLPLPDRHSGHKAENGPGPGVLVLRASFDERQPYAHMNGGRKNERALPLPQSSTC

[9] = target: T9, Src (Homo sapiens, UniProt P12931); assay: Kinase inhibition assay (33P transfer), Src; settings: Table 6, Src-1 kinase inhibition class
T9 construct: Kinases are expressed as either kinase domains or full length constructs; made in house
Outline: as §2

[10] = target: T10, Flt-1 (Homo sapiens, UniProt P17948); assay: Kinase inhibition assay (33P transfer), Flt-1
T10 construct: Kinases are expressed as either kinase domains or full length constructs; made in house
Outline: as §2

[11] = target: T11, c-Met (Homo sapiens, UniProt P08581); assay: Kinase inhibition assay (33P transfer), c-Met; settings: Table 2, kinase inhibition class; read-out: Met-1
T11 construct: Kinases are expressed as either kinase domains or full length constructs; made in house
T11 sequence (P08581 25-1390): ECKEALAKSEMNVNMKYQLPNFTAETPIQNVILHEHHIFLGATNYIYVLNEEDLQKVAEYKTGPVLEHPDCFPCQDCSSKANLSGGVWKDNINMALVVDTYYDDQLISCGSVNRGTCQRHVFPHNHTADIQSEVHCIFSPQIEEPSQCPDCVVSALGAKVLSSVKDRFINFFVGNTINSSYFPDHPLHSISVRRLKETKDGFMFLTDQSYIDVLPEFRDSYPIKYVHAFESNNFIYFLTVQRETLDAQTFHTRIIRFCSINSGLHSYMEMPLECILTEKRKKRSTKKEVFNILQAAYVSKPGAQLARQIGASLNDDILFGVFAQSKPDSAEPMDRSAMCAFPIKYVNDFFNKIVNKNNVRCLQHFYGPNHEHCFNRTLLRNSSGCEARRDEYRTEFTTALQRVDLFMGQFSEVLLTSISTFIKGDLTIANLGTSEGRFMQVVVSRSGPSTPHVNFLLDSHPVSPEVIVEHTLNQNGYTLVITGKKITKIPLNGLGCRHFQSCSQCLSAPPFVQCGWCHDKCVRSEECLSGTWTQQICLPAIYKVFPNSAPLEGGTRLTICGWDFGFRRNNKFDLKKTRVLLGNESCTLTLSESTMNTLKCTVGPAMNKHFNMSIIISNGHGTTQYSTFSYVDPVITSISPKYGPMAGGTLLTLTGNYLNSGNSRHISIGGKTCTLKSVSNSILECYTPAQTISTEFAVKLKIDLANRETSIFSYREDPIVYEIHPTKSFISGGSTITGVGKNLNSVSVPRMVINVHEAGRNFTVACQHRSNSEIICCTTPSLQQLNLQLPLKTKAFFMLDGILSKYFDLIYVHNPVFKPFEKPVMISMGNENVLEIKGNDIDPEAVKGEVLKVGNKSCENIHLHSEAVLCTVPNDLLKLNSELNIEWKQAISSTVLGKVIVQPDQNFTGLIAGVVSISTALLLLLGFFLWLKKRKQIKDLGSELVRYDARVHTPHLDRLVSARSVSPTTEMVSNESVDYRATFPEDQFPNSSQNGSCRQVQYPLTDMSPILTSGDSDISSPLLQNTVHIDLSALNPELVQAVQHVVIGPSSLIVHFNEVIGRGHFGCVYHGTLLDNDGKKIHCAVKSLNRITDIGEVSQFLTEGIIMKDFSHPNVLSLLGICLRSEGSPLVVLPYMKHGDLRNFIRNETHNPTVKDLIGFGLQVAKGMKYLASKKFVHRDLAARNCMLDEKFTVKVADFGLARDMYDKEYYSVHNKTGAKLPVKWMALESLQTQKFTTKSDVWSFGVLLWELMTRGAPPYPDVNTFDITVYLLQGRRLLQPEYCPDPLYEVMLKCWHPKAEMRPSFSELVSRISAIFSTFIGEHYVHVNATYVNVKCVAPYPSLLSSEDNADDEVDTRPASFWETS
Outline: as §2

[12] = target: T12, ErbB4 (Homo sapiens, UniProt Q15303); assay: Kinase inhibition assay (33P transfer), ErbB4; settings: read-out: ErbB4-1
T12 construct: Kinases are expressed as either kinase domains or full length constructs; made in house
T12 sequence (Q15303 26-1308, species assumed): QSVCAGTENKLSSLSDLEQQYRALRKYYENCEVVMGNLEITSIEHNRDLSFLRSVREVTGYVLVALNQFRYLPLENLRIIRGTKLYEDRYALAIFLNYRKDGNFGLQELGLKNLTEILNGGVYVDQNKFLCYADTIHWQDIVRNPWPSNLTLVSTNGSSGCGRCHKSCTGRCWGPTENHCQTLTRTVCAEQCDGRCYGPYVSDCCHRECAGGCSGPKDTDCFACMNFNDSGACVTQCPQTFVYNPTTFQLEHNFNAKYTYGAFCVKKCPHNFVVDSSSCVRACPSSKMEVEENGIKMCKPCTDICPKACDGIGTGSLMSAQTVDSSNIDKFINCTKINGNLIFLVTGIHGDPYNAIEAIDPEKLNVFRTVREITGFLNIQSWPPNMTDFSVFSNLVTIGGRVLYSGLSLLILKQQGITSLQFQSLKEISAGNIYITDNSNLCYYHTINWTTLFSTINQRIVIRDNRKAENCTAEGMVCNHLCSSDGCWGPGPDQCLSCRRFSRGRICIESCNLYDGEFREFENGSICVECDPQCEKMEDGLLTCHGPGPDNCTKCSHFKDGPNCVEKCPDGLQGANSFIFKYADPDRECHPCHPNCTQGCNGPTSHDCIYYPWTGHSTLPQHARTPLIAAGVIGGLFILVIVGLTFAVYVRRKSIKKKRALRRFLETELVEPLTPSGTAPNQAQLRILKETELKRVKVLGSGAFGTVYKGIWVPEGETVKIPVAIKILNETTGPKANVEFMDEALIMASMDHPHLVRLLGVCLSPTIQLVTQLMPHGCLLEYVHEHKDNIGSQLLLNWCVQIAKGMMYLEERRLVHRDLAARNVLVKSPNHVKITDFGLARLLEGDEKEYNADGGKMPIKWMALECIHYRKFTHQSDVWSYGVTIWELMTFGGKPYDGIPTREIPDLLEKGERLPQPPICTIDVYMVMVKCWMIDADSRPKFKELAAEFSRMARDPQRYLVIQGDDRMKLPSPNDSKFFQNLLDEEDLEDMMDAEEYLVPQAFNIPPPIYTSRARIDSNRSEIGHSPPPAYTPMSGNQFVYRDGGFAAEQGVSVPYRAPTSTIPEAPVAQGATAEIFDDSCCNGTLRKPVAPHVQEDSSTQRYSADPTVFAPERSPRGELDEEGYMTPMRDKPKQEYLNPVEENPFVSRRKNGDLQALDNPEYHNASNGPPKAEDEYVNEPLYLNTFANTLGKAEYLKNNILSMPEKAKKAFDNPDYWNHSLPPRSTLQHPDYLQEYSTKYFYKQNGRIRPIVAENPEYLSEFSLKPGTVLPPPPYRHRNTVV

[13] = target: T13, Tek (Homo sapiens, UniProt Q02763); assay: Kinase inhibition assay (33P transfer), Tek; settings: read-out: Tek-1
T13 construct: Kinases are expressed as either kinase domains or full length constructs; made in house
Outline: as §2

[14] = target: T14, FGFR1 (Homo sapiens, UniProt P11362); assay: Kinase inhibition assay (33P transfer), FGFR1; settings: read-out: FGFR1-1
T14 construct: Kinases are expressed as either kinase domains or full length constructs; made in house

[15] = target: T15, Lyn (Homo sapiens, UniProt P07948); assay: Kinase inhibition assay (33P transfer), Lyn; settings: Table 6, Lyn-1 kinase inhibition class
T15 construct: Kinases are expressed as either kinase domains or full length constructs; made in house
Outline: as §2

| Structure (SMILES) | IC50 [1] [µM] | IC50 [2] [µM] | IC50 [3] [µM] | IC50 [4] [µM] | IC50 [5] [µM] | IC50 [6] [µM] | IC50 [7] [µM] | IC50 [8] [µM] | IC50 [9] [µM] | IC50 [10] [µM] | IC50 [11] [µM] | IC50 [12] [µM] | IC50 [13] [µM] | IC50 [14] [µM] | IC50 [15] [µM] |
| --- | --- | --- | --- | --- | --- | --- | --- | --- | --- | --- | --- | --- | --- | --- | --- |
| COc1cc(Nc2ncnc(Nc3ccccc3F)n2)cc(OC)c1OC [Compound 65] | > 12.1 | > 12.1 | > 12.1 | < 1.08 | < 1.08 | 6.46 to 9.42 | 9.42 to 12.1 | 1.08 to 6.46 | 1.08 to 6.46 | 1.08 to 6.46 | > 12.1 | > 12.1 | > 12.1 | > 12.1 | 1.08 to 6.46 |
| COc1cc(Nc2ncnc(Nc3ccccc3C)n2)cc(OC)c1OC [Compound 67] | > 12.2 | 9.53 to 12.2 | > 12.2 | 1.09 to 6.53 | 6.53 to 9.53 | 6.53 to 9.53 | 1.09 to 6.53 | 9.53 to 12.2 | 1.09 to 6.53 | 9.53 to 12.2 | > 12.2 |  | > 12.2 | > 12.2 | < 1.09 |
| COc1cc(Nc2ncnc(Nc3ccc(O)cc3Cl)n2)cc(OC)c1OC [Compound 77] | > 11.1 | 0.991 to 5.94 | > 11.1 | < 0.991 | 0.991 to 5.94 | 0.991 to 5.94 | 0.991 to 5.94 | 0.991 to 5.94 | 0.991 to 5.94 | 0.991 to 5.94 | > 11.1 |  | > 11.1 | 0.991 to 5.94 | < 0.991 |
| COc1cc(Nc2ncnc(Nc3ccc(C(N)=O)cc3)n2)cc(OC)c1OC [Compound 33] | > 11.4 | 6.05 to 8.83 | > 11.4 | 8.83 to 11.4 | > 11.4 | > 11.4 | 8.83 to 11.4 | < 1.01 | 1.01 to 6.05 | > 11.4 | > 11.4 |  | > 11.4 | 6.05 to 8.83 | 1.01 to 6.05 |
| COc1cc(Nc2ncnc(Nc3ccc(F)c(Cl)c3)n2)cc(OC)c1OC [Compound 61] | > 11.1 | < 0.986 | > 11.1 | < 0.986 | < 0.986 | < 0.986 | < 0.986 | < 0.986 | < 0.986 | < 0.986 | > 11.1 | > 11.1 |  | > 11.1 | < 0.986 |
| COc1cc(Nc2ncnc(Nc3ccc(Cl)cc3)n2)cc(OC)c1OC [Compound 72] | > 11.6 |  |  | < 1.03 | 1.03 to 6.19 | 1.03 to 6.19 | 1.03 to 6.19 | < 1.03 |  | < 1.03 | 9.02 to 11.6 | 1.03 to 6.19 | > 11.6 | < 1.03 |  |
| C#Cc1cccc(Nc2ncnc(Nc3cc(OC)c(OC)c(OC)c3)n2)c1 [Compound 74] | > 11.9 | > 11.9 | > 11.9 |  | < 1.06 | < 1.06 | 1.06 to 6.36 | < 1.06 | 1.06 to 6.36 |  | 9.27 to 11.9 | > 11.9 | > 11.9 |  | < 1.06 |

More lines, now with the values ahead:

| IC50 [1] [µM] | IC50 [2] [µM] | IC50 [3] [µM] | IC50 [4] [µM] | IC50 [5] [µM] | IC50 [6] [µM] | IC50 [7] [µM] | IC50 [8] [µM] | IC50 [9] [µM] | IC50 [10] [µM] | IC50 [11] [µM] | IC50 [12] [µM] | IC50 [13] [µM] | IC50 [14] [µM] | IC50 [15] [µM] | Structure (SMILES) |
| --- | --- | --- | --- | --- | --- | --- | --- | --- | --- | --- | --- | --- | --- | --- | --- |
| > 11.4 | > 11.4 | > 11.4 | 8.83 to 11.4 | > 11.4 | > 11.4 | > 11.4 | < 1.01 | > 11.4 | > 11.4 | 6.05 to 8.83 | > 11.4 |  | > 11.4 | > 11.4 | COc1cc(Nc2ncnc(NC(=O)Nc3ccccc3)n2)cc(OC)c1OC [Compound 852] |
| > 11.2 | 8.68 to 11.2 | 8.68 to 11.2 | 0.991 to 5.95 | 0.991 to 5.95 | > 11.2 | 0.991 to 5.95 |  | 5.95 to 8.68 | 8.68 to 11.2 | > 11.2 | 0.991 to 5.95 | > 11.2 | > 11.2 | 0.991 to 5.95 | COc1cc(Nc2ncnc(Nc3ccc4ccccc4c3)n2)cc(OC)c1OC [Compound 96] |
| > 11.7 | < 1.04 | 1.04 to 6.26 | < 1.04 | 1.04 to 6.26 | 1.04 to 6.26 | 1.04 to 6.26 | 1.04 to 6.26 | 1.04 to 6.26 | 1.04 to 6.26 | > 11.7 |  | > 11.7 | 1.04 to 6.26 | < 1.04 | COc1ccccc1Nc1ncnc(Nc2cc(OC)c(OC)c(OC)c2)n1 [Compound 90] |
| > 12.7 | < 1.13 | > 12.7 | < 1.13 | 1.13 to 6.79 | 6.79 to 9.9 | 1.13 to 6.79 | 1.13 to 6.79 | 1.13 to 6.79 | < 1.13 | > 12.7 |  | > 12.7 | 6.79 to 9.9 | 1.13 to 6.79 | COc1cc(Nc2ncnc(Nc3ccccc3)n2)cc(OC)c1OC [Compound 91] |
